Patent US11834481B1, “Salty taste enhancing peptide derived from dry-cured ham and preparation method thereof” (Hefei University of Technology, priority 2022, dated 2023)

Test: sensory evaluation of purified components for salty taste enhancing effect
Settings: components purified from Jinhua dry-cured ham crude peptides (Sephadex G-15, DEAE anion column); sensory evaluation with electronic tongue-assisted analysis
Experimental: The crude polypeptides obtained in S2 were dissolved in pure water, filtered by 0.22 μm of aqueous phase membrane, and then loaded onto a Sephadex G-15 gel filtration column (3.0×200 cm) for purification at 25° C. Specific chromatographic parameters: the sample mass concentration was 40 mg/mL; the injection volume was 200 μL; the eluent was 0.01 M of hydrochloric acid buffer solution at a flow rate of 0.5 mL/min, the primary UV ultraviolet detection wavelength was 214 nm, and the secondary UV ultraviolet detection wavelength was 250 nm. All purified components were subject to a sensory evaluation according to their respective chromatographic peaks. […]

Asp-Leu [Asp-Leu (DL)]
salty taste enhancing effect: optimal salty taste enhancing effect
